# Assay results published in article PMC6792352, “Limited Chemical Structural Diversity Found to Modulate Thyroid Hormone Receptor in the Tox21 Chemical Library” (Environmental Health Perspectives, 2019).
# Counter-ions that a name gives are not always drawn.
# Assay: in vitro
# Settings: rat, gh3-tre-luc cells
Structure (SMILES),CC50 at 24 h (AC50 (uM) modified / 1000) [µM],other results
C=CC(=O)OCCOc1ccccc1 [2-Phenoxyethyl acrylate],> 90,
CC1=C(CC(=O)O)c2cc(F)ccc2/C1=C\c1ccc(S(C)(=O)=O)cc1 [Sulindac sulfone],> 50,
O=C1c2ccccc2C(=O)C1c1ccc(F)cc1 [Fluindione],> 50,
C#CC(C)N(C)C(=O)Nc1ccc(Cl)cc1 (stereo not drawn) [Buturon],> 90,
"Cc1cc(C)c(N)c(Cl)c1 [2-Chloro-4,6-dimethylaniline]",> 90,
C[C@H](Cc1ccc(O)c(O)c1)[C@@H](C)Cc1ccc(O)c(O)c1 [Nordihydroguaiaretic acid],8.42,
Nc1nc2ncc(CNc3ccc(C(=O)N[C@@H](CCC(=O)O)C(=O)O)cc3)nc2c(=O)[nH]1 [Folic acid],> 90,
CCCCCCCCCCCCCCCCCC#N [Octadecanenitrile],> 90,
C#CCOC(=O)[C@@H](C)Oc1ccc(Oc2ncc(Cl)cc2F)cc1 [Clodinafop-propargyl],> 90,
"CCCCOC(=O)COc1ccc(Cl)cc1Cl [2,4-D 1-butyl ester]",> 90,
CN(C)CCc1c[nH]c2ccc(O)cc12 [Bufotenine],,"CC50 at 24 h (AC50 (uM) modified / 1000, Tox21_110001=Tox21_112890, viability, 1 nM T3 present, 24 h): > 90 µM"
NC(=O)[C@H]1O[C@@H](O)[C@H](O)[C@@H](O)[C@@H]1O [Glucuronamide],> 50,
"CC1(C)CC(N)CC(C)(C)N1 [2,2,6,6-Tetramethylpiperidin-4-amine]",> 90,
"Cl/C=C/CCl [1,3-Dichloropropene]",,"CC50 at 24 h (AC50 (uM) modified / 1000, Tox21_110001=Tox21_200235, viability, 1 nM T3 present, 24 h): > 90 µM"
CCOc1nc2cccc(C(=O)O)c2n1Cc1ccc(-c2ccccc2-c2nnn[nH]2)cc1 [Candesartan],34.4,
CC(=O)Nc1ccc(/C=N/NC(N)=S)cc1 [Amithiozone],> 50,
C=CCOC(=O)CCCCCCCC [Allyl nonanoate],> 90,
CC(C)=CCC[C@](C)(O)[C@@H]1CC=C(C)CC1 [Levomenol],> 90,
C[C@@H](O)[C@H]1C(=O)N2C(C(=O)O)=C(SCCN=CN)C[C@H]12 [Imipenem],> 20,
CN1[C@@H]2CC[C@H]1C[C@@H](OC(=O)c1cc(Cl)cc(Cl)c1)C2 [MDL 72222],35.2,
NC(=O)c1ccccc1[N+](=O)[O-] [2-Nitrobenzamide],> 90,
ClC1=C(Cl)C2(Cl)C3C(Cl)C=CC3C1(Cl)C2(Cl)Cl (stereo not drawn) [Heptachlor],,"CC50 at 24 h (AC50 (uM) modified / 1000, Tox21_110001=Tox21_201911, viability, 1 nM T3 present, 24 h): 37.8 µM; CC50 at 24 h (AC50 (uM) modified / 1000, Tox21_110001=Tox21_300534, viability, 1 nM T3 present, 24 h): 42.6 µM"
CC(C)C1(C)N=C(c2ncccc2C(=O)O)NC1=O (stereo not drawn) [Imazapyr],> 90,
"N[C@@H](Cc1cc(I)c(Oc2ccc(O)c(I)c2)c(I)c1)C(=O)O [3,5,3ʹ-Triiodothyronine]",> 70,
CC1=NN(c2ccccc2)C(=O)C1 [1-Phenyl-3-methyl-5-pyrazolone],> 90,

Structure (SMILES),CC50 at 24 h (AC50 (uM) modified / 1000) [µM],other results
CC1(C)S[C@@H]2[C@H](NC(=O)C3(N)CCCCC3)C(=O)N2[C@H]1C(=O)O [Cyclacillin],> 50,
C=CC1(C)OC(=O)N(c2cc(Cl)cc(Cl)c2)C1=O (stereo not drawn) [Vinclozolin],> 90,
Cc1cc(O)no1 [Hymexazol],> 100,
OCc1c2ccccc2cc2ccccc12 [9-Anthracenemethanol],> 90,
C[C@]12CC[C@H]3[C@@H](CCC4=C(O)C(=O)CC[C@@H]43)[C@@H]1CC[C@@H]2OC(=O)CCC1CCCC1 [Oxabolone cipioncate],,"CC50 at 24 h (AC50 (uM) modified / 1000, Tox21_110001=Tox21_112760, viability, 1 nM T3 present, 24 h): > 50 µM"
CCN(CC)CCOc1ccc(-c2nc3cc(Cl)ccc3s2)cc1 [Halethazole hydrochloride],8.14,
CC(=O)Oc1cc(C)c(OC(C)=O)c2ccccc12 [Acetomenaphthone],19.7,
"O=C1OC(=O)c2cccc3cccc1c23 [1H,3H-Naphtho(1,8-cd)pyran-1,3-dione]",> 90,
CC(C)OC(=O)Nc1cccc(Cl)c1 [Chlorpropham],> 90,
COc1ccc(CCC(=O)c2c(O)cc(O[C@@H]3O[C@H](CO)[C@@H](O)[C@H](O)[C@H]3O[C@@H]3O[C@@H](C)[C@H](O)[C@@H](O)[C@H]3O)cc2O)cc1O [Neohesperidin dihydrochalcone],> 90,
CC(=O)SC[C@@H](C)C(=O)N1CCC[C@H]1C(=O)N[C@@H](Cc1ccccc1)C(=O)O [Alacepril],> 50,
Nc1nnnn1-c1ccccc1 [Fenamol],> 50,
C=CCN(CC=C)CC=C [Triallylamine],> 90,
CCCOC(=O)c1ccc(O)cc1 [Propylparaben],> 90,
C/C=C/CC#N [3-Pentenenitrile],> 90,
COC(=O)C(C)N(C(=O)c1ccco1)c1c(C)cccc1C (stereo not drawn) [Furalaxyl],> 90,
O=C1CCCCO1 [Tetrahydro-2H-pyran-2-one],> 90,
O=C1Nc2ccc(Cl)cc2[C@@](C#CC2CC2)(C(F)(F)F)O1 [Efavirenz],31.4,
"CC1(C)Cc2cccc(O)c2O1 [2,3-Dihydro-2,2-dimethyl-7-benzofuranol]",> 100,
CCOC(=O)CC(=O)OCC [Diethyl propanedioate],> 90,
CCCCc1c(C)nc(NCC)[nH]c1=O [Ethirimol],> 90,
CCC(C)n1ncn(-c2ccc(N3CCN(c4ccc(OC[C@H]5CO[C@](Cn6cncn6)(c6ccc(Cl)cc6Cl)O5)cc4)CC3)cc2)c1=O (mixture of isomers) [Itraconazole],3.2,
CC(=O)OCC(=O)Nc1cc(C#N)cc(NC(=O)COC(C)=O)c1Cl [Acreozast],> 50,
ClC(Cl)C(Cl)(Cl)Cl [Pentachloroethane],,"CC50 at 24 h (AC50 (uM) modified / 1000, Tox21_110001=Tox21_201141, viability, 1 nM T3 present, 24 h): > 90 µM"
CCCCC[Si](OCC)(OCC)OCC [Triethoxypentylsilane],> 90,

Structure (SMILES),CC50 at 24 h (AC50 (uM) modified / 1000) [µM],other results
O=c1c2ccccc2[se]n1-c1ccccc1 [Ebselen],19.6,
O=C(O)c1ccc(-n2nc(-c3ccccc3O)nc2-c2ccccc2O)cc1 [Deferasirox],41.8,
C[C@@H]1O[C@@H](OC[C@H]2O[C@@H](Oc3c(-c4ccc(O)c(O)c4)oc4cc(O)cc(O)c4c3=O)[C@H](O)[C@@H](O)[C@@H]2O)[C@H](O)[C@H](O)[C@H]1O [Rutin],57.3,
CCCCOC(=O)C(=O)OCCCC [Dibutyl ethanedioate],> 90,
Cc1cc2c(s1)Nc1ccccc1N=C2N1CCN(C)CC1 [Olanzapine],15.7,
O=c1[nH][nH]c(=O)c2cc([N+](=O)[O-])ccc12 [6-Nitrophthalhydrazide],> 90,
COc1cc(NCCCC(C)N)c2ncccc2c1 (stereo not drawn) [Quinocide],15.1,
CCCCC(CC)COC(=O)c1ccccc1 (stereo not drawn) [2-Ethylhexyl benzoate],> 90,
CC(=O)Oc1cccc(C(=O)O)c1OC(C)=O [Dipyrocetyl],> 50,
Cc1nnc2n1-c1ccc(Cl)cc1C(c1ccccc1)=NC2 [Alprazolam],> 50,
"CCCCNC(=O)NCCCC [N,N'-Dibutylurea]",> 90,
CCOC(=O)c1ccc(OCCN2C[C@H](O)[C@@H](O)[C@H](O)[C@H]2CO)cc1 [Emiglitate],> 50,
"CC1=NN(c2cc(Cl)c(S(=O)(=O)O)cc2Cl)C(=O)C1N=Nc1ccc(S(=O)(=O)O)cc1 (stereo not drawn) [C.I. Acid Yellow 17, disodium salt]",92.5,
CC[C@]12CCCN3CCc4c(n(c5ccccc45)[C@@](O)(C(=O)OC)C1)[C@@H]32 [Vincamine],65.8,
OC1CCCCCCCCCCC1 [Cyclododecanol],> 90,
CC(=O)Oc1ccc2c(c1)CC[C@@H]1[C@@H]2CC[C@]2(C)[C@@H](O)CC[C@@H]12 [Estradiol acetate],22.3,
CCNc1nc(NCC)nc(SC)n1 [Simetryn],,"CC50 at 24 h (AC50 (uM) modified / 1000, Tox21_110001=Tox21_300702, viability, 1 nM T3 present, 24 h): > 90 µM"
CC(=O)Oc1cc2c(s1)CCN(C(C(=O)C1CC1)c1ccccc1F)C2 (stereo not drawn) [Prasugrel hydrochloride],> 50,
Cc1cc(N)no1 [5-Methyl-3-isoxazolamine],> 100,
"C1CSCCS1 [1,4-Dithiane]",> 90,
CC(Cl)COP(=O)(OCC(C)Cl)OCC(C)Cl (stereo not drawn) [Tris(2-chloropropyl) phosphate],,"CC50 at 24 h (AC50 (uM) modified / 1000, Tox21_110001=Tox21_302421, viability, 1 nM T3 present, 24 h): > 90 µM"
COc1ccc([N+](=O)[O-])cc1N [2-Methoxy-5-nitroaniline],> 90,
C#CCOC(C(=O)OCCN(C)C)(c1ccccc1)c1ccccc1 [Pargeverine hydrochloride],> 50,
"Nc1ccc(Cl)c(Cl)c1 [3,4-Dichloroaniline]",> 90,
